In this experiment the test system is Leukotriene B4. In words: Human whole blood assay, Leukotriene B4 inhibition. The format is cell-based. Conditions: heparinized human whole blood; pre-incubated 15 minutes at 37° C.; stimulated with 50 μM calcium ionphor for 30 minutes at 37° C.; EIA; read-out: IC50 (Leukotriene B4 inhibition, LTB4 content of plasma). The method, then: The following compound of the invention was tested for Leukotriene B4 inhibition in the human whole blood assay detailed below. [drawing 40]
Heparinized human whole blood was pre-incubated with selected concentrations of the test compound for 15 minutes at 37° C. and stimulated with 50 μM calcium ionphor for 30 minutes at 37° C. The reaction was stopped by placing samples on ice and cold centrifugation at 4° C. for 10 minutes at 1100×g. Test sample plasma was diluted in buffer and assayed for LTB4 content. Test compound activity was determined as per Cayman […] EIA and evaluated as IC50 [nM].

Regarding `NC(=O)N(O)CC#CC1CC[C@@H](Cc2ccc(F)cc2)O1` (stereo partly shown), the IC50 (in general, the concentration needed to halve the response being measured) came to 148 nM.
